From patent US20240360137A1 (Novartis AG, priority 2023, published 2024)
pIC50: −log10 of the molar value.

How the values were obtained:
Assay in all cases: CDKi biochemical assay (TR-FRET, phosphorylation of S780 on RB1 peptide)
CDK1/CyclinB1 = CDK1/CyclinB1 (Homo sapiens, UniProt P06493); settings: CDK1/CyclinB1 10 pM, 1 mM ATP, 60 min at 25° C.
Protocol: (§1) Biochemical assays measured the inhibitory effects of compounds in this disclosure on the enzymatic activity of CDK enzyme in complex with Cyclin protein partner by phosphorylation of Ser-780 (S780) on retinoblastoma protein peptide (RB1) in the presence of 1 mM adenosime-5-triphosphate (ATP) and varying concentration of test compound in 20 mM 2-[4-(2-hydroxyethyl)paperazin-1-yl] ethanesulfonic acid (HEPES), pH 7.5, 10 mM MgCl2, 1 mM dithiothreitol (DTT), 0.01% bovine serum albumin (BSA), 0.005% Tween 20. Total Reaction volume of 10 μL proceeded for 60 minutes at room temperature (25° C.) and were quenched with 5 μL of 200 mM 2′,2″,2′″-(Ethane-1,2-diyldinitrilo)tetraacetic acid (EDTA) pH 8.0 before addition of 5 μL detection solution containing 100 nM fluorophore conjugate streptavidin allophycocyanin (SA-APC), 2 nM Europium labelled Anti-p-RB(S780)-K (Perkin Elmer, 64CUSKAY), 50 mM HEPES, pH 7.5, 400 mM potassium fluoride (KF), 0.1% BSA, and 0.01% Tween-20. Phosphorylation of S780 on RB1 peptide (His-MBP-RB1[773-924]-SEQ ID NO. 9) was detected by TR-FRET after 3 hour incubation with detection solution. Percent phosphorylation activity was plotted against log concentration of compound to generate an apparent ICSO. The following CDK enzyme in complex with different cyclin proteins and protein peptide substrate were used in these assays: • CDK1/CyclinB1, Avi-tag, 10 pM used in the assay • CDK2/CyclinE1, Avi-tag, 100 pM used in the assay • CDK4/cyclinD1, Avi-tag, 20 pM used in the assay • CDK6/cyclinD3, Avi-tag, 10 pM used in the assay • His-MBP-RB1[773-924], Avi-tag, 200 nM used in the assay
(§2) The avi-tag is a C-terminal fusion on the CDK1/2/4/6 sequence in each of these two-protein complexes. The known avi-tag sequence, […] (SEQ ID NO. 10), is a substrate for E. coli biotin ligase BirA, which covalently attaches a biotin molecule to the e-amino group of the lysine in that sequence. The avi-tag is attached with an 8 amino-acid linker sequence GGSGGGGS (SEQ ID NO. 11), resulting in the full C-terminal fusion
(§3) Recombinant proteins were generated as N-terminal fusions of 9× His tag—E. coli Maltose Binding Protein (MBP), with or without a C-terminal Avi-tag.^1 CDK2 and His-MBP-RB1[773-924]-c-avi were expressed in E. coli while the remainder were expressed in Sf21 insect cells. Genes were synthesized commercially (GeneArt and Twist Bioscience) using codon frequencies appropriate to the respective organisms and proprietary codon optimization strategies, and inserted into pET 24 (E. coli) or pDEST8 (insect) vectors already containing the 9× His-MBP tag using standard methods of PCR and Gibson Assembly.^2 E. coli expression was performed by auto-induction overnight at 18 or 21 C. For insect cell expression, bacmids and viruses were created,^3 then used to synchronously infect Sf21 insect cells with harvest at 40-48 hrs., per standard protocols.^4
(§4) For CDK2/Cyclin E and CDK1/Cyclin B, the CDK and Cyclin proteins were expressed separately, lysed by sonication and clarified by centrifugation. The fusion proteins were each separately purified by immobilized metal ion affinity chromatography (IMAC) (5 mL HisTrap, Cytiva) and Superdex 200 26/60 (Cytiva) size-exclusion and complexed in vitro (1-3 hrs incubation at room temperature) prior to tag cleavage by recombinant his-tagged Tobacco Etch Virus protease or his-tagged Human rhinovirus 3C protease, as appropriate. The cleaved complex is further purified by Superdex 75 26/60 (Cytiva) size-exclusion followed by reverse-IMAC, in which the complex is in the column flow-through and residual His-MBP and his-tagged proteases are retained. The final complex is concentrated as desired by centrifugal concentration (Amicon Ultra 10,000 Da MWCO 15 mL concentrators, Millipore).
(§5) For the is-MBP-RB1[773-924]-c-avi, the protein was lysed by sonication and clarified by centrifugation. […]

CDK2/CyclinE1 = CDK2/CyclinE1 (Homo sapiens, UniProt P24941); settings: CDK2/CyclinE1 100 pM, 1 mM ATP, 60 min at 25° C.
Protocol: as §1, §2, §3, §4
For E. coli expressed CDK2 and His-MBP-RB1[773-924]-c-avi, the proteins were biotinylated in vitro after the first IMAC step.^1
as §5

CDK4/cyclinD1 = CDK4/cyclinD1 (Homo sapiens, UniProt P11802); settings: CDK4/cyclinD1 20 pM, 1 mM ATP, 60 min at 25° C.
Protocol: as §1, §2, §3
(§6) For CDK4/Cyclin D1 and CDK6/Cyclin D3, the complexes were expressed by simultaneous co-infection of insect cells by three separate viruses including one expressing untagged E. coli BirA. The expression media is supplemented with 50 uM d-biotin. The resulting protein complexes purified similarly. After lysis and clarification, the complex is purified by IMAC, Superdex 200 26/60 size exclusion, tag cleavage by human rhinovirus 3C protease, Superdex 75 26/60 size exclusion and reverse IMAC. BirA is typically not retained on the first IMAC, and excess CDK or Cyclin monomer is separated on the Superdex 200 size exclusion. Cleaved His-MBP and remaining monomer are removed by the Superdex 75 size exclusion and the reverse IMAC step. Final concentration by centrifugal concentrators as described above.
as §5

CDK6/cyclinD3 = CDK6/cyclinD3 (Homo sapiens, UniProt Q00534); settings: CDK6/cyclinD3 10 pM, 1 mM ATP, 60 min at 25° C.
Protocol: as §1, §2, §3, §6, §5

Structure (SMILES)	pIC50 (CDK1/CyclinB1)	pIC50 (CDK2/CyclinE1)	pIC50 (CDK4/cyclinD1)	pIC50 (CDK6/cyclinD3)
O=C1N([C@@H]2CCC[C@@H](O)C2)c2nc(Nc3c[nH]nc3C3CC3(F)F)ncc2C12CC2 (single isomer, unassigned) [Example 32]	6.47	8.22	5.56	5.32
O=C1N([C@@H]2CCC[C@@H](O)C2)c2nc(Nc3c[nH]nc3CO)ncc2C12CC2 [Example 6, 7′-((1R,3R)-3-hydroxycyclohexyl)-2′-((3-(hydroxymethyl)-1H-pyrazol-4-yl)amino)spiro[cyclopropane-1,5′-pyrrolo[2,3-d]pyrimidin]-6′(7′H)-one]	5.53	7.49	6.08	5.66
Cc1n[nH]cc1Nc1ncc2c(n1)N([C@H]1C[C@H](O)CC(C)(C)C1)C(=O)C21CC1 [Example 7, 7′-((1R,5R)-5-hydroxy-3,3-dimethylcyclohexyl)-2′-((3-methyl-1H-pyrazol-4-yl)amino)spiro[cyclopropane-1,5′-pyrrolo[2,3-d]pyrimidin]-6′(7′H)-one]	5.22	6.87	5.41	5.66
O=C1N([C@@H]2CCC[C@@H](O)C2)c2nc(Nc3cnn4c3CNCC4)ncc2C12CC2 [Example 9, 7′-((1R,3R)-3-hydroxycyclohexyl)-2′-((4,5,6,7-tetrahydropyrazolo[1,5-a]pyrazin-3-yl)amino)spiro[cyclopropane-1,5′-pyrrolo[2,3-d]pyrimidin]-6′(7′H)-one]	≤ 5.00	6.57	≤ 5.00	≤ 5.00
O=C1N([C@@H]2CCC[C@@H](O)C2)c2nc(Nc3c[nH]nc3C3CCCCO3)ncc2C12CC2 (stereo partly drawn) [Example 10, 7′-((1R,3R)-3-hydroxycyclohexyl)-2′-((3-(tetrahydro-2H-pyran-2-yl)-1H-pyrazol-4-yl)amino)spiro[cyclopropane-1,5′-pyrrolo[2,3-d]pyrimidin]-6′(7′H)-one]	≤ 5.00	5.91	≤ 5.00	≤ 5.00
COCc1ncc(Nc2ncc3c(n2)N([C@@H]2CCC[C@@H](O)C2)C(=O)C32CC2)[nH]1 [Example 11, 7′-((1R,3R)-3-hydroxycyclohexyl)-2′-((2-(methoxymethyl)-1H-imidazol-5-yl)amino)spiro[cyclopropane-1,5′-pyrrolo[2,3-d]pyrimidin]-6′(7′H)-one]	≤ 5.00	5.87	5.24	5.03
COc1n[nH]cc1Nc1ncc2c(n1)N([C@@H]1CCC[C@@H](O)C1)C(=O)C21CC1 [Example 12, 7′-((1R,3R)-3-hydroxycyclohexyl)-2′-((3-methoxy-1H-pyrazol-4-yl)amino)spiro[cyclopropane-1,5′-pyrrolo[2,3-d]pyrimidin]-6′(7′H)-one]	5.65	7.70	5.13	5.10

Results, then the compound that gave them:

pIC50 (CDK1/CyclinB1)	pIC50 (CDK2/CyclinE1)	pIC50 (CDK4/cyclinD1)	pIC50 (CDK6/cyclinD3)	Structure (SMILES)
5.81	7.42	6.40	6.22	Cn1cc(Nc2ncc3c(n2)N([C@@H]2CCC[C@@H](O)C2)C(=O)C32CC2)cn1 [Example 1, 7′-((1R,3R)-3-hydroxycyclohexyl)-2′-((1-methyl-1H-pyrazol-4-yl)amino)spiro[cyclopropane-1,5′-pyrrolo[2,3-d]pyrimidin]-6′(7′H)-one]
5.92	7.74	5.34	5.18	Cc1n[nH]cc1Nc1ncc2c(n1)N([C@@H]1CCC[C@@H](O)C1)C(=O)C21CC1 [Example 2, 7′-((1R,3R)-3-hydroxycyclohexyl)-2′-((3-methyl-1H-pyrazol-4-yl)amino)spiro[cyclopropane-1,5′-pyrrolo[2,3-d]pyrimidin]-6′(7′H)-one]
6.09	8.15	5.56	5.42	O=C1N([C@@H]2CCC[C@@H](O)C2)c2nc(Nc3c[nH]nc3C(F)F)ncc2C12CC2 [Example 3, 2′-((3-(difluoromethyl)-1H-pyrazol-4-yl)amino)-7′-((1R,3R)-3-hydroxycyclohexyl)spiro[cyclopropane-1,5′-pyrrolo[2,3-d]pyrimidin]-6′(7′H)-one]
≤ 5.00	7.02	≤ 5.00	≤ 5.00	COC(=O)c1n[nH]cc1Nc1ncc2c(n1)N([C@@H]1CCC[C@@H](O)C1)C(=O)C21CC1 [Example 4, methyl 4-((7′-((1R,3R)-3-hydroxycyclohexyl)-6′-oxo-6′,7′-dihydrospiro[cyclopropane-1,5′-pyrrolo[2,3-d]pyrimidin]-2′-yl)amino)-1H-pyrazole-3-carboxylate]
≤ 5.00	5.95	5.17	5.24	Cc1cc(Nc2ncc3c(n2)N([C@@H]2CCC[C@@H](O)C2)C(=O)C32CC2)[nH]n1 [Example 5, 7′-((1R,3R)-3-hydroxycyclohexyl)-2′-((3-methyl-1H-pyrazol-5-yl)amino)spiro[cyclopropane-1,5′-pyrrolo[2,3-d]pyrimidin]-6′(7′H)-one]
≤ 5.00	6.63	≤ 5.00	≤ 5.00	O=C1N([C@@H]2CCC[C@@H](O)C2)c2nc(Nc3c[nH]nc3C3CCOC3)ncc2C12CC2 (stereo partly drawn) [Example 8, 7′-((1R,3R)-3-hydroxycyclohexyl)-2′-((3-(tetrahydrofuran-3-yl)-1H-pyrazol-4-yl)amino)spiro[cyclopropane-1,5′-pyrrolo[2,3-d]pyrimidin]-6′(7′H)-one]
6.04	7.92	5.28	5.15	O=C1N([C@@H]2CCC[C@@H](O)C2)c2nc(Nc3c[nH]nc3Cl)ncc2C12CC2 [Example 13, 2′-((3-chloro-1H-pyrazol-4-yl)amino)-7′-((1R,3R)-3-hydroxycyclohexyl)spiro[cyclopropane-1,5′-pyrrolo[2,3-d]pyrimidin]-6′(7′H)-one]
≤ 5.00	6.94	≤ 5.00		COc1n[nH]cc1Nc1ncc2c(n1)N([C@@H]1CCCC[C@@H](O)C1)C(=O)C21CC1 [Example 18]
5.27	7.51		≤ 5.00	CSc1n[nH]cc1Nc1ncc2c(n1)N([C@@H]1CCC[C@@H](O)C1)C(=O)C21CC1 [Example 52, 7′-((1R,3R)-3-hydroxycyclohexyl)-2′-((3-(methylthio)-1H-pyrazol-4-yl)amino)spiro[cyclopropane-1,5′-pyrrolo[2,3-d]pyrimidin]-6′(7′H)-one]
